# Measured values taken from US20080200405A1, “Drug Resistance Reversal In Neoplastic Disease” (priority 2007, published 2008).
# Key:
# Angiogenesis in CAM = assay: Neovascularization on the CAM (Inhibition of Angiogenesis in CAM); type: in vivo, chicken; settings: 30 ug
# Experimental: In vivo neovascularization was examined by the method previously described by Auerbach et al. (J. Dev. Biol. 41:391-394 (1974)). Ten-day old chicken embryos were purchased from Spafas, Inc. (Preston, Conn.) and were incubated at 37° C. with 55% relative humidity. In the dark, with the aid of a candling lamp, a small hole was punctured in the shell concealing the air sac with a hypodermic needle. A second hole was punctured in the shell on the broadside of the egg directly over an […] portion of the embryonic membrane, as observed during candling. An artificial air sac was created beneath the second hole by applying gentle vacuum to the first hole using a small rubber squeeze bulb. The vacuum caused the chorioallantoic membrane (CAM) to separate from the shell. A window, approximately 1.0 cm^2, was cut in the shell over the dropped CAM with the use of a small crafts grinding wheel (Dremel, Division of Emerson Electric Company Racine, Wis.). The window allowed direct access to the underlying CAM. A pro-angiogenic agent was added to induce new blood vessel branches on the CAM of 10-day old embryos. […] Louis, Mo.) in a solution (95% ethanol and water). The disks were subsequently air dried under sterile conditions. The disks were then suspended in PBS (Phosphate Buffered Saline) and placed on growing CAMs. […] For inducing angiogenesis, sterile filter disks were saturated with bFGF (1 μg/ml) (Life Technologies, Gaithersburg, Md.) or other pro-angiogenesis factors and control disks were saturated with PBS without Calcium and Magnesium. Control disks were saturated with PBS without Calcium and Magnesium. Using sterile forceps one filter/CAM was placed from the window. The window was sealed with Highland brand transparent tape. After 24-48 hr, 10-25 ul of test agent was injected intravenously or added topically into the CAM membrane. Eight-Ten eggs/treatment group were used. CAM tissue directly beneath filter disk was harvested from embryos treated 48 hours prior with compound or control. Tissues were washed three times with PBS. Sections were placed in a 35-mm petri dish (Nalge Nunc, Rochester, N.Y.) and examined under a SV6 stereomicroscope (Karl Zeiss, Thornwood, N.Y.) at 50× magnification. […] Digital images of CAM sections from Petri dish were collected using a 3-CCD color video camera system (Toshiba America, New York, N.Y.). These images were analyzed using Image-Pro Plus software (Media Cybernetics, Silver Spring, Md.). The number of branch points in blood vessels within the circular region superimposed to the area of a filter disk was counted for each section. […] Tissues were washed three times with PBS. Sections were placed in a 35-mm Petri dish (Nalge Nunc; Rochester, N.Y.) and were examined under a SV6 stereomicroscope (Karl Zeiss; Thornwood, N.Y.) at 50× magnification. Digital images of CAM sections adjacent to filters were collected using a 3-CCD color video camera system (Toshiba America; New York, N.Y.) and analyzed with the Image-Pro Plus software (Media Cybernetics; Silver Spring, Md.). The number of vessel branch points contained in a circular region equal to the area of a filter disk was counted for each section. Percent inhibition data are expressed as the quotient of the experimental value minus the negative control value divided by the difference between the positive control value and the negative control value. One image was counted in each CAM preparation, and findings from eight CAM preparations were analyzed for each treatment condition. In addition, each experiment was performed three times. The resulting angiogenesis index is the mean ±SEM (Standard Error of Measurement) of new branch points in each set of treatment. Statistical analysis of blood vessel branching patterns are performed by 1-way analysis of variance (ANOVA) comparing experimental with corresponding control groups.
# [1] = In vitro stability of OT-551 in rabbit plasma; type: in vitro ADME
# Experimental: (§1) The active metabolite of OT-551 (Cyclopropanecarboxylic acid 1-hydroxy-2,2,6,6-tetramethyl-piperidin-4-yl ester) is TP-H. The objective of this analysis was to determine the in vitro half-life of OT-551 in rat, rabbit, dog, and human plasma under standardized incubation conditions.
# (§2) OT-551 was incubated with pooled rat, rabbit, dog, and human plasma for various times under standardized incubation conditions. Pre-labeled tubes containing pooled plasma from rats, rabbits, dogs, and humans were pre-incubated in a shaking 37° C. water bath. A OT-551 solution was added to the tubes at a final concentration of 1000 ng/mL. Time zero samples (n=5) were immediately removed and transferred into tubes containing a stabilizer solution (DTPA, acetylcysteine and ascorbic acid), the LC/MS/MS assay internal standard and methanol. […] The tubes were vortexed, placed on ice, followed by centrifugation. One hundred-μL aliquots of the supernatant were transferred into HPLC sample vials. Additional tubes (n=5 at each time point) were incubated for 5, 10, 20, 30, 60, 120, and 240 minutes at 37° C. and thereafter processed. The amount of OT-551 and TP-H in each incubated sample was quantified using validated LC/MS/MS assays.
# [2] = In vitro stability of OT-551 in dog plasma; type: in vitro ADME
# Experimental: as §1, §2
# [3] = Single-dose 10-minute intravenous infusion toxicokinetics of OT-551; type: in vivo, Sprague-Dawley rats; settings: for Cmax of OT-551: Sprague-Dawley rats
# Experimental: Blood for toxicokinetic evaluations was collected at pre-determined time points during and after the infusion. Plasma samples were analyzed for OT-551 and TP-H using validated LC/MS/MS assays. Descriptive toxicokinetic parameters were determined by standard model independent methods (Gilbaldi and Perrier, 1982) based on the plasma concentration-time data. […] The plasma concentrations were rounded to the nearest tenth of a ng/mL before the calculations. […] Nominal time points were used for all calculations. Since there was no apparent gender difference in the plasma concentrations of OT-551 and TP-H, the data for male and female rats at each sampling time point were pooled.
smiles,measurement,setting,value
"CC1(C)CC(OC(=O)C2CC2)CC(C)(C)N1O.Cl [OT-551, 1-hydroxy-4-cyclopropanecarbonyloxy-2,2,6,6-tetramethylpiperidine hydrochloride]","Inhibition of Angiogenesis in CAM, % Inhibition","Angiogenesis in CAM; listed as OT-551 HCl, hydrochloride",74 ± 4%
same,inhibition in vivo at 0.03 mg,Angiogenesis in CAM; Gallus gallus,75.2 ± 9.7%
same,Concentrations (ng/mL) of OT-551 in Rabbit Plasma,[1]; incubation time 0 min,502.75 ± 74.66 ng/mL
same,Concentrations (ng/mL) of OT-551 in Rabbit Plasma,[1]; incubation time 5 min,14.56 ± 3.35 ng/mL
same,Concentrations (ng/mL) of OT-551 in Rabbit Plasma,[1]; incubation time 10 min,0.00 ± 0.00 ng/mL
same,Concentrations (ng/mL) of OT-551 in Rabbit Plasma,[1]; incubation time 20 min,0.00 ± 0.00 ng/mL
same,Concentrations (ng/mL) of OT-551 in Rabbit Plasma,[1]; incubation time 30 min,0.00 ± 0.00 ng/mL
same,Concentrations (ng/mL) of OT-551 in Rabbit Plasma,[1]; incubation time 60 min,0.00 ± 0.00 ng/mL
same,Concentrations (ng/mL) of OT-551 in Rabbit Plasma,[1]; incubation time 120 min,0.00 ± 0.00 ng/mL
same,Concentrations (ng/mL) of OT-551 in Rabbit Plasma,[1]; incubation time 240 min,0.00 ± 0.00 ng/mL
same,Concentrations (ng/mL) of OT-551 in Dog Plasma,[2]; incubation time 0 min,771.12 ± 21.68 ng/mL
same,Concentrations (ng/mL) of OT-551 in Dog Plasma,[2]; incubation time 5 min,804.93 ± 17.45 ng/mL
same,Concentrations (ng/mL) of OT-551 in Dog Plasma,[2]; incubation time 10 min,811.14 ± 21.06 ng/mL
same,Concentrations (ng/mL) of OT-551 in Dog Plasma,[2]; incubation time 20 min,809.01 ± 18.58 ng/mL
same,Concentrations (ng/mL) of OT-551 in Dog Plasma,[2]; incubation time 30 min,789.53 ± 13.73 ng/mL
same,Concentrations (ng/mL) of OT-551 in Dog Plasma,[2]; incubation time 60 min,717.22 ± 25.73 ng/mL
same,Concentrations (ng/mL) of OT-551 in Dog Plasma,[2]; incubation time 120 min,608.14 ± 25.96 ng/mL
same,Concentrations (ng/mL) of OT-551 in Dog Plasma,[2]; incubation time 240 min,428.20 ± 12.03 ng/mL
same,peak plasma concentration of OT-551 at the end of the infusion,"[3]; 10 mg/kg OT-551, 10-minute i.v. infusion",980.5 ng/mL
same,plasma level of OT-551 one hour after termination of the infusion,"[3]; 10 mg/kg, assay limit <50 ng/mL",not quantifiable
same,peak plasma concentration of OT-551 at the end of the infusion,"[3]; 30 mg/kg OT-551, 10-minute i.v. infusion",3487.1 ng/mL
same,peak plasma concentration of OT-551 at the end of the infusion,"[3]; 100 mg/kg OT-551, 10-minute i.v. infusion",29020.0 ng/mL
same,peak plasma concentration of OT-551 at the end of the infusion,"[3]; 200 mg/kg OT-551, 10-minute i.v. infusion",89740.8 ng/mL
same,plasma levels of OT-551 four hours after termination of the infusion,"[3]; 30 to 200 mg/kg, assay limit <50 ng/mL",not quantifiable
same,Cmax of OT-551,[3]; 10-minute iv infusion of OT-551 10 mg/kg,0.9805 µg/mL
same,Cmax of OT-551,[3]; 10-minute iv infusion of OT-551 30 mg/kg,3.4871 µg/mL
same,Cmax of OT-551,[3]; 10-minute iv infusion of OT-551 100 mg/kg,29.02 µg/mL
same,Cmax of OT-551,[3]; 10-minute iv infusion of OT-551 200 mg/kg,89.7408 µg/mL
same,clearance of OT-551 in rats,"[3]; rat, in vivo",very rapid
